Measurements published in patent publication US7659297B2, “Tetrahydronaphthalene derivatives, process for their production and their use as anti-inflammatory agents” (Bayer Schering Pharma, AG, priority 2003, dated 2010).
pIC50: −log10 of the molar value.

Tests used:
[1] = tested on: secretion of the cytokine IL-8, triggered by lipopolysaccharide (LPS), in the human monocyte cell line THP-1; experiment: Inhibition of LPS-triggered secretion of the cytokine IL-8 in THP-1 cells (ELISA of supernatant); assay type: cell-based; details: LPS-triggered IL-8 secretion
Method: The concentration of the cytokines was determined in the supernatant by means of commercially available ELISA kits.

[2] = target: T1, glucocorticoid receptor (GR) (Homo sapiens, UniProt P04150); experiment: Binding to the glucocorticoid receptor, recombinantly produced receptor, cytosol preparations of Sf9 cells, reference [3H]-dexamethasone; details: recombinant GR
T1 construct: made in house; host or cells: Sf9 cells infected with recombinant baculovirus (cytosol preparation)
T1 sequence (P04150 1-777): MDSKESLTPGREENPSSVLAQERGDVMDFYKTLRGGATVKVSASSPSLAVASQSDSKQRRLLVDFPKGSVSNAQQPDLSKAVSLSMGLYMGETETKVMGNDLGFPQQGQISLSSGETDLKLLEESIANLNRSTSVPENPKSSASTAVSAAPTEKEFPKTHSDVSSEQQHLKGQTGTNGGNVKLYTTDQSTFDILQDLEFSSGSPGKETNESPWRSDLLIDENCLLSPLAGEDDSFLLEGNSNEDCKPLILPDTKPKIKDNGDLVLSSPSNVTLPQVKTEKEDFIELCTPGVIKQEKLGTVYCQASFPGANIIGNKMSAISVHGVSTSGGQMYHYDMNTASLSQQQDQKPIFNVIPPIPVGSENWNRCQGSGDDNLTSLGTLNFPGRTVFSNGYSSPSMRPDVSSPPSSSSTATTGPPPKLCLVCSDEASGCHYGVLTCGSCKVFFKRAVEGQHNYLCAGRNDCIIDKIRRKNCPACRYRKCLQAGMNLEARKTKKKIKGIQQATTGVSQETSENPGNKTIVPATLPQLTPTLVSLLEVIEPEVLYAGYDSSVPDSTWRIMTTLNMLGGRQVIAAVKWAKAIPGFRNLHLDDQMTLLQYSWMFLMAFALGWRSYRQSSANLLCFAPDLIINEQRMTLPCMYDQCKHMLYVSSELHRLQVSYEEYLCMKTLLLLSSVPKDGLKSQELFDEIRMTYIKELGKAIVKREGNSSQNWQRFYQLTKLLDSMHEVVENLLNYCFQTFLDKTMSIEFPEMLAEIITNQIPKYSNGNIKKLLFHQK
Source text: (§1) The binding of substances to the glucocorticoid receptor (GR) and other steroid hormone-receptors (mineral corticoid receptors (MR), progesterone receptors (PR) and androgen receptors (AR)) is examined with the aid of recombinantly produced receptors. Cytosol preparations of Sf9 cells, which had been infected with recombinant baculoviruses that code for the GR, are used for the binding tests. In comparison to the reference substance [^3H]-dexamethasone, the substances show a high affinity to the GR.

[3] = target: T2, progesterone receptors (PR) (Homo sapiens, UniProt P06401); experiment: Binding to other steroid hormone receptors with recombinantly produced receptors: progesterone receptor
T2 construct: made in house
T2 sequence (P06401 1-933): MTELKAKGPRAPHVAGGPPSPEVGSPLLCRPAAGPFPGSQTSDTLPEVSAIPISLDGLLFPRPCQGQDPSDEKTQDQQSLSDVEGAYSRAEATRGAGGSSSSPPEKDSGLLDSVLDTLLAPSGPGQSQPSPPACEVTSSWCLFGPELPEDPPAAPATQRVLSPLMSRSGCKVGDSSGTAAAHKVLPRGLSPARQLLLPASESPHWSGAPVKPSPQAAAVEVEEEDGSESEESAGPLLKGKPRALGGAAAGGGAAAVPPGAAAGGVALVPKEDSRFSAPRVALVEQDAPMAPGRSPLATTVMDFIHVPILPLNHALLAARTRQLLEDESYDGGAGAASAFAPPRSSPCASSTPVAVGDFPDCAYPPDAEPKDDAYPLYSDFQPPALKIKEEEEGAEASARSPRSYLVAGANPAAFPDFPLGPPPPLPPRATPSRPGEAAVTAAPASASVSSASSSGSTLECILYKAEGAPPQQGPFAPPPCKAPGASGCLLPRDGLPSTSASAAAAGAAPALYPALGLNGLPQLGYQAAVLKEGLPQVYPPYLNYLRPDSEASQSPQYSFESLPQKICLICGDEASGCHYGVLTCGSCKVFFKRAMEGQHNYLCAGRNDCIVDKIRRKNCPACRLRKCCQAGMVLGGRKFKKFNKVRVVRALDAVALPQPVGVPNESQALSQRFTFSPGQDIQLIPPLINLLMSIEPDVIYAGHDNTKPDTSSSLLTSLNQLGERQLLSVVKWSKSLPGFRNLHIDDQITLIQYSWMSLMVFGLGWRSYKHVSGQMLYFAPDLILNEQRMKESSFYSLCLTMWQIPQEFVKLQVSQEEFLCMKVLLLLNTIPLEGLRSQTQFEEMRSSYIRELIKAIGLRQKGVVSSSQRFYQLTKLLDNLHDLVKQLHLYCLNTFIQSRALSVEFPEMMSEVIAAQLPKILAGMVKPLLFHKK
Source text: as §1

pIC50 ([1]; Homo sapiens, read-out: inhibition IC50(IL8)): 7.40
pIC50 [2]: 7.07
pIC50 [3]: < 6.00
SMILES: Cc1ncc2c(NC3c4cc(C)c(F)c(O)c4C(C)(C)CC3(O)C(F)(F)F)ccc(F)c2n1 (racemic) [Example 285, 6-Fluoro-1-[(8-fluoro-2-methylquinazolin-5-yl)amino]-4,4,7-trimethyl-2-(trifluoromethyl)-1,2,3,4-tetrahydronaphthalene-2,5-diol]
eff (IL8 inhibition) [1]: 79%
